Measurements as given in ChEMBL document CHEMBL1759863, “Synthesis and biological activity of hydroxy substituted phenyl-benzo[d]thiazole analogues for antityrosinase activity in B16 cells” (Bioorg Med Chem Lett, 2011).
Each block holds one molecule with its values, some of them ahead of it.

How the values were obtained:
[1] = biological target: T1, Tyrosinase (Mus musculus) (UniProt P11344); experiment: Inhibition of tyrosinase in alpha-MSH-induced mouse B16 cells at 10 uM; type: cell-based
T1 sequence (whole entry): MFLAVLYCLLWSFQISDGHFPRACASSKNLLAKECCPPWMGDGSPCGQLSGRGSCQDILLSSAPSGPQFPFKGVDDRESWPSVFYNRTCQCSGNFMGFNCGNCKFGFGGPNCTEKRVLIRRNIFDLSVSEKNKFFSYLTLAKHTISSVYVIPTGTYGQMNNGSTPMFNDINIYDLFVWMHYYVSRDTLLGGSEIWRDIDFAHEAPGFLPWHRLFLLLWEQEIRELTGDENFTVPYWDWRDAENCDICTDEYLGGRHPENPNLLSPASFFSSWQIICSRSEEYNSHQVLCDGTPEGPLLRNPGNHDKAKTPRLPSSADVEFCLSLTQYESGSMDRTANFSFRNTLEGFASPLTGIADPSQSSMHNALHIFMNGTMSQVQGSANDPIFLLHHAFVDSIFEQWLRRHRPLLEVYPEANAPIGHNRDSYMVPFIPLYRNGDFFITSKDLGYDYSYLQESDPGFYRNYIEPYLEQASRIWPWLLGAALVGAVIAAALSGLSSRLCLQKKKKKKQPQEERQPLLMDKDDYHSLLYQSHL

[2] = biological target: T2, Tyrosinase (Agaricus bisporus) (UniProt O42713); experiment: Inhibition of mushroom tyrosinase at 0.08 uM using L-tyrosine as a substrate
T2 sequence (whole entry): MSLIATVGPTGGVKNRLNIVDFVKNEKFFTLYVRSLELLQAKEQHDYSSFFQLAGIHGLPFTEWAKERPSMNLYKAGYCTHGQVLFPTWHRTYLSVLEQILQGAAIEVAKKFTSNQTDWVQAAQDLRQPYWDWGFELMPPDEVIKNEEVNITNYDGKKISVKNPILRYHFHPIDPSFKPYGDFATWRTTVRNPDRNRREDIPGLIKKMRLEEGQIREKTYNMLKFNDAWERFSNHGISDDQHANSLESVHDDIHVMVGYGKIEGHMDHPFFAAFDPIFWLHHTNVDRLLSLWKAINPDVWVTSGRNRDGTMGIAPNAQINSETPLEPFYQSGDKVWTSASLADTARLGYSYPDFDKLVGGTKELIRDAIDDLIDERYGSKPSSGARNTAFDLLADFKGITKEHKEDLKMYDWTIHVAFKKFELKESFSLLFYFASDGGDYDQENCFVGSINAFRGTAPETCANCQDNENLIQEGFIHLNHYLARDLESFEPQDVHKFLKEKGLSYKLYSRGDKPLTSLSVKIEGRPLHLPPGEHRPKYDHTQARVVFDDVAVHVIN

[3] = biological target: T3, Tyrosinase (Agaricus bisporus, UniProt O42713)
T3 sequence (O42713 whole entry): T2 sequence (whole entry)
Description: Inhibition of mushroom tyrosinase using L-tyrosine as a substrate

[4] = tested on: B16; experiment: Cytotoxicity against mouse B16 cells assessed as viable cells at 1 uM after 48 hrs by MTT assay relative to control; type: functional; conditions: B16, 48 h, read-out: Activity
[5] = biological target: T3, Tyrosinase; remark: listed apart in the source
Description: Inhibition of mushroom tyrosinase at 20 uM by Lineweaver-Burk plot analysis

[6] = tested on: B16; experiment: Cytotoxicity against mouse B16 cells assessed as viable cells at 5 uM after 48 hrs by MTT assay relative to control; type: functional; conditions: B16, 48 h, read-out: Activity
[7] = tested on: B16; experiment: cells; conditions: Mus musculus, B16, 24 h, read-out: INH
Description: Inhibition of alpha-MSH-induced melanin production in mouse B16 cells at 0.2 uM after 24 hrs relative to control

[8] = tested on: B16; experiment: cells; conditions: Mus musculus, B16, 24 h, read-out: INH; remark: listed apart in the source
Description: Inhibition of alpha-MSH-induced melanin production in mouse B16 cells at 10 uM after 24 hrs relative to control

[9] = tested on: B16; experiment: cells; conditions: Mus musculus, B16, 24 h, read-out: INH; remark: listed apart in the source
Description: Inhibition of alpha-MSH-induced melanin production in mouse B16 cells at 2.5 uM after 24 hrs relative to control

[10] = biological target: T2, Tyrosinase (Agaricus bisporus); experiment: Inhibition of mushroom tyrosinase at 0.01 uM using L-tyrosine as a substrate
[11] = tested on: B16; experiment: Cytotoxicity against mouse B16 cells assessed as viable cells at 0.2 uM after 48 hrs by MTT assay relative to control; type: functional; conditions: B16, 48 h, read-out: Activity
[12] = tested on: B16; experiment: Cytotoxicity against mouse B16 cells assessed as viable cells at 10 uM after 48 hrs by MTT assay relative to control; type: functional; conditions: B16, 48 h, read-out: Activity
[13] = biological target: T1, Tyrosinase (Mus musculus); experiment: Inhibition of tyrosinase in alpha-MSH-induced mouse B16 cells at 1 uM; type: cell-based
[14] = tested on: B16; experiment: cells; conditions: Mus musculus, B16, 24 h, read-out: INH; remark: listed apart in the source
Description: Inhibition of alpha-MSH-induced melanin production in mouse B16 cells at 1 uM after 24 hrs relative to control

[15] = tested on: B16; experiment: Cytotoxicity against mouse B16 cells assessed as viable cells at 2.5 uM after 48 hrs by MTT assay relative to control; type: functional; conditions: B16, 48 h, read-out: Activity
[16] = tested on: B16; experiment: cells; conditions: Mus musculus, B16, 24 h, read-out: INH; remark: listed apart in the source
Description: Inhibition of alpha-MSH-induced melanin production in mouse B16 cells at 5 uM after 24 hrs relative to control

[17] = biological target: T3, Tyrosinase; remark: listed apart in the source
Description: Inhibition of mushroom tyrosinase at 1.25 uM by Lineweaver-Burk plot analysis

[18] = biological target: T1, Tyrosinase (Mus musculus); experiment: Inhibition of tyrosinase in alpha-MSH-induced mouse B16 cells at 5 uM; type: cell-based
[19] = biological target: T1, Tyrosinase (Mus musculus); experiment: Inhibition of tyrosinase in alpha-MSH-induced mouse B16 cells at 2.5 uM; type: cell-based
[20] = substrate: Oc1ccc(-c2nc3ccccc3s2)cc1; conditions: Agaricus bisporus; 1.25 uM
[21] = substrate: Oc1ccc(-c2nc3ccccc3s2)c(O)c1; conditions: Agaricus bisporus; 1.25 uM
[22] = substrate: Oc1ccc(-c2nc3ccccc3s2)cc1; experiment: (§1) Activity of mushroom tyrosinase at 20 uM by Lineweaver-Burk plot analysis; conditions: Agaricus bisporus
[23] = substrate: Oc1ccc(-c2nc3ccccc3s2)c(O)c1; experiment: as §1; conditions: Agaricus bisporus

inhibition [1]: 95.2% | inhibition [2]: 46.2% | IC50 [3]: 1.14 µM | Ki [5]: 1.7 µM | inhibition [10]: 45.4% | inhibition [13]: 133% | Ki [17]: 0.567 µM | inhibition [18]: 97.7% | inhibition [19]: 98.8%
Molecule: Oc1ccc(-c2nc3ccccc3s2)cc1
viability at 1 µM [4]: 98.9% | viability at 5 µM [6]: 96.5% | inhibition at 0.2 µM [7]: 201% | inhibition at 10 µM [8]: 97.1% | inhibition at 2.5 µM [9]: 129% | viability at 0.2 µM [11]: 99.7% | viability at 10 µM [12]: 95.8% | inhibition at 1 µM [14]: 188% | viability at 2.5 µM [15]: 97.6% | inhibition at 5 µM [16]: 104%

inhibition [1]: 99.6% | inhibition [2]: 70.8% | IC50 [3]: 0.01 µM | Ki [5]: 7.7 µM | inhibition [10]: 49.9% | Ki [17]: 0.673 µM | inhibition [18]: 108% | inhibition [19]: 111%
Molecule: Oc1ccc(-c2nc3ccccc3s2)c(O)c1
viability at 1 µM [4]: 94.9% | viability at 5 µM [6]: 94.6% | inhibition at 0.2 µM [7]: 224% | inhibition at 10 µM [8]: 131% | inhibition at 2.5 µM [9]: 190% | viability at 0.2 µM [11]: 96.3% | viability at 10 µM [12]: 94.4% | inhibition at 1 µM [14]: 217% | viability at 2.5 µM [15]: 94.7% | inhibition at 5 µM [16]: 141%

B1: Tyrosinase (Agaricus bisporus), O42713 (protein)
chain: T2 sequence (whole entry)
Km [20]: 1020 µM | Km [21]: 1160 µM | Km [22]: 5650 µM | Km [23]: 1460 µM
